We go through nine compounds from patent publication US8945853B2, “Detection of intracellular binding events by measuring protein abundance” (DiscoveRx Corporation, priority 2012, dated 2015).

Assay [1] concerns the target T1, BLK (241-494)-PL fusion (Homo sapiens, UniProt P51451). The assay is described as follows: Specificity of binding compounds, BLK-PL fusion in U2OS cells (FIG. 9B). The class given is cell-based. Details: BLK peptide containing amino acids from 241-494 were fused with the PL; expressed in transfected cells.
Assay [2] addresses T1, BLK (241-494)-PL fusion. In words: BLK-PL fusions of varying sequence length treated with dasatinib, EFC chemiluminescence. Further details: BLK peptide containing amino acids from 241-494 were fused with the PL; expressed in transfected cells; HEK cells are also named. Conditions: 241-494 fusion compared with the other BLK sequence lengths; 3 hours. The class given is cell-based. As to the method: A number of fusions were constructed that included varying amounts of the protein sequence centered around the kinase active site as defined by homology to other kinases. E.g. fusion containing protein BLK amino acid numbers 241-494, 246-494, 251-494, 256-494, 261-494 and 266-494 were made.
The expression construct containing the fusion protein was used to transduce the HEK cells. The cells were then incubated in the presence of dasatinib for 3 hours.
BLK-PL fusions were then quantified by adding lysis buffer, EA and chemiluminescent substrate. […] Dasatinib, N-(2-chloro-6-methylphenyl)-2-[[6-[4-(2-hydroxyethyl)-1-piperazinyl]-2-methyl-4-pyrimidinyl]amino]-5-thiazole carboxamide monohydrate, is an oral multi-BCR/ABL and Src family tyrosine kinase inhibitor approved for use in patients with chronic myelogenous leukemia (CML).
Results showing the binding of dasatinib to BLK containing amino acid sequence 241-494 are depicted in FIG. 3. The expression plasmids (e.g. 241-494) indicated in the legend are named to show the amino acid locations of the start and stop of the BLK sequence used. The plasmids were used to transduce parental U2OS cells. The cells were then treated with dasatanib for 3 hrs and the BLK-PL fusions were quantified by adding lysis buffer, EA and chemiluminescent substrate.

For another assay, the target named is CYP 17A-PL fusion (Homo sapiens, UniProt P05093). The assay is described as follows: CYP17A-PL fusion stabilization in HEK cells (FIG. 11). It counts as cell-based. Here is the method:
(§1) HEK cells were transduced with fusion protein expression construct. The cells were then treated with different compounds for 3-6 hrs at 37° C. the fusion proteins were then quantified to analyze the effect of different compounds on the stabilization of fusion proteins.

The target in another assay is BCL-2 / PL-Bax (Homo sapiens, UniProt P10415). The assay is described as follows: BCL-2 co-expressed with PL-Bax in U2OS cells, disruption by small molecules (FIG. 7A). The class given is cell-based. The note with it: for HillSlope / Bottom (best-fit) / Top (best-fit): PL-Bax; for Bottom (best-fit) / Top (best-fit) / effect on BCL-2 stabilization of Bax: U2OS, overnight; for Bottom (best-fit) / Top (best-fit): luminescence. Here is the method:
(§2) Interaction of BCL-2 with a peptide test compound (Bim, Bak, and Bax) was studied.
(§3) The native BCL-2 was co-expressed with each of the ProLabel fusions in U2OS cells. Small molecules that are reported to disrupt BCL-2 interactions were then applied to the cells and incubated overnight.
(§4) Cells were transduced with the indicated target PL-fusion and the untagged protein Bcl-2. The cells were treated with the indicated compounds overnight and the remaining target-PL fusion was detected by lysing the cells in the presence of EA and substrate. Luminescence was measured 30 minutes later.

A further assay deals with BCL-2 / PL-Bim (Homo sapiens, UniProt P10415). The assay is described as follows: BCL-2 co-expressed with PL-Bim in U2OS cells, disruption by small molecules (FIG. 7B). The class given is cell-based. The note with it: for HillSlope / Bottom (best-fit) / Top (best-fit): PL-Bim; for Bottom (best-fit) / Top (best-fit) / effect on BCL-2/Bim stabilization: U2OS, overnight; for Bottom (best-fit) / Top (best-fit): luminescence. Here is the method: as §2, §3, §4

In another assay the target is BCL-2 / PL-Bak (Homo sapiens, UniProt P10415). In words: BCL-2 co-expressed with PL-Bak in U2OS cells, disruption by small molecules (FIG. 7C). It counts as cell-based. Here is the method: as §2, §3, §4
In assay [3] the target is T2, CYP 19A amino acids 1-503-PL fusion (Homo sapiens, UniProt P11511).
T2 construct: expressed in transfected cells; host or cells: HEK
T2 sequence (P11511 1-503): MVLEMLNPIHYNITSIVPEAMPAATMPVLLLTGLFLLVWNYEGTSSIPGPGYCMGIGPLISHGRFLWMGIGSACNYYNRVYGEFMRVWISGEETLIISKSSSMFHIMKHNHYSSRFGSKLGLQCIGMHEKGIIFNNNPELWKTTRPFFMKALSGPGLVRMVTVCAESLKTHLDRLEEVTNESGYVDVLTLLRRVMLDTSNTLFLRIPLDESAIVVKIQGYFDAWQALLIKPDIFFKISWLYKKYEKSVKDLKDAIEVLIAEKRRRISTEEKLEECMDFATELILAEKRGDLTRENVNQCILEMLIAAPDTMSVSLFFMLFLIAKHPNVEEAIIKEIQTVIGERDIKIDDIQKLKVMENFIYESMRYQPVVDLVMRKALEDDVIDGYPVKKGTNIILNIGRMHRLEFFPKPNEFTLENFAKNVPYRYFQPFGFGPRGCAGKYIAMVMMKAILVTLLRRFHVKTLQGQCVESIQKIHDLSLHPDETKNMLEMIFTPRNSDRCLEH
The assay is described as follows: CYP19A-PL fusion stabilization in HEK cells. It counts as cell-based. Conditions: data not shown. As to the method:
as §1
Arimidex® anastrazole is available from AstraZeneca and is known to bind to aromatase. YM511 (chemical Name: 4-[[(4-Bromophenyl)methyl]-4H-1,2,4-triazol-4-ylamino]benzonitrile) is also an aromatase inhibitor. CYP19 is also known as aromatase.

The subject of the next assay is BRD4 (1)-PL fusion. In words: Bromodomain-PL fusion stability in HEK cells. It counts as cell-based. The note with it: 6 hrs at 37° C. As to the method:
To study the effect of compound binding, fusion proteins were prepared using fragments of BRD4 (1) (Accession No. NM_058243), BRD2 (1) (Accession No. NM_005104) and BRDT (1) (Accession No. NM_001242806) (SEQ ID NO. 13, 14 and 15 respectively) and prolabel (PL). The expression construct containing the fusion proteins were used to transducer the HEK cells. Cells were plated in a 384 well-plate and incubated overnight at 37° C./5% CO2 to allow the cells to attach and gro.

The target of the next assay is G9A(918-1198)-PL (Homo sapiens, UniProt Q96KQ7). In words: Half-life of G9A catalytic domain-PL fusion in A549 cells after cycloheximide (FIG. 10). It counts as cell-based, humans. As to the method: Methyltransferases are a group of transferases enzymes involved in DNA methylation. G9a methyltransferase methylates lysine 9 of histone H3 and is present in humans.
The enzyme donor PL fused to the catalytic domain of G9A was expressed in A549 cells, which were plated I a 384-well plate and incubated overnight at 37° C./5% CO2 to allow the cells to attach and grow. […] Both the batches were then treated with cycloheximide to prevent further protein production and the half-life of the fusion protein in both the batches were calculated as shown in FIG. 10. […] UNC0638 is commercially available and is an inhibitor of G9a/GLP methyltransferases. See, e.g. http (colon slash slash) apps.thesgc.org/chemical_probes/UNC0638/#overview, SGC product literature.

The mark [4] stands for this setting: PL-Bak, U2OS, overnight, luminescence.

CYP 17A-PL fusion, sequence (P05093 with tags, fused parts or gaps): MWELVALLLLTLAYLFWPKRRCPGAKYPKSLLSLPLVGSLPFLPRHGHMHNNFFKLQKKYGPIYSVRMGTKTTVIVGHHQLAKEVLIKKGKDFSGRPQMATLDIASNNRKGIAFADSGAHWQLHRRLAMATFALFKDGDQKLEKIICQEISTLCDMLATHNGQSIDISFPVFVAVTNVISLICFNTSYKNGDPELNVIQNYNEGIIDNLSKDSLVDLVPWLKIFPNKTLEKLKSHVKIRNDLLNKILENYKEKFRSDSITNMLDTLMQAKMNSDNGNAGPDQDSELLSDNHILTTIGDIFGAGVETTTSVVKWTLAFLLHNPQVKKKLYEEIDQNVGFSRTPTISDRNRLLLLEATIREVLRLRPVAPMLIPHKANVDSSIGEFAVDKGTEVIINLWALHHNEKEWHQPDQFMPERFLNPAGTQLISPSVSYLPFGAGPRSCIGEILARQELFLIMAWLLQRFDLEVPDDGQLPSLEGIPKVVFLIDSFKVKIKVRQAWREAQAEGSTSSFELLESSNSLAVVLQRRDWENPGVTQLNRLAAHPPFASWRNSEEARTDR
T1 sequence (P51451 241-494): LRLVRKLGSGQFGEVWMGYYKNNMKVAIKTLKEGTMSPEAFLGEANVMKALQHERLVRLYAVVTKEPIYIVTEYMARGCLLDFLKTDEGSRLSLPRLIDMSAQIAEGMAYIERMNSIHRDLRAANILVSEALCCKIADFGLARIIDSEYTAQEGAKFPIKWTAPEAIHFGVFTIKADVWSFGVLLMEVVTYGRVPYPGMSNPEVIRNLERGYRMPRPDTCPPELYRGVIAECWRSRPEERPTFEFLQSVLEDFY
BCL-2 / PL-Bim, sequence (P10415 whole entry): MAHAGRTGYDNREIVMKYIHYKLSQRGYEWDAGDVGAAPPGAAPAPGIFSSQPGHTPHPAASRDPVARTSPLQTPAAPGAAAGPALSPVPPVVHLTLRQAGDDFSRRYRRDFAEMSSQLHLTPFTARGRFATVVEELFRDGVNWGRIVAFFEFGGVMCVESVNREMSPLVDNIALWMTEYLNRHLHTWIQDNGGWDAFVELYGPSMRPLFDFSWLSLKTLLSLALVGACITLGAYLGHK
BCL-2 / PL-Bax, sequence (P10415 whole entry): as above
BCL-2 / PL-Bak, sequence (P10415 whole entry, the tested form may be a part): as the sequence (P10415 whole entry) above
G9A(918-1198)-PL, sequence (Q96KQ7 with tags, fused parts or gaps): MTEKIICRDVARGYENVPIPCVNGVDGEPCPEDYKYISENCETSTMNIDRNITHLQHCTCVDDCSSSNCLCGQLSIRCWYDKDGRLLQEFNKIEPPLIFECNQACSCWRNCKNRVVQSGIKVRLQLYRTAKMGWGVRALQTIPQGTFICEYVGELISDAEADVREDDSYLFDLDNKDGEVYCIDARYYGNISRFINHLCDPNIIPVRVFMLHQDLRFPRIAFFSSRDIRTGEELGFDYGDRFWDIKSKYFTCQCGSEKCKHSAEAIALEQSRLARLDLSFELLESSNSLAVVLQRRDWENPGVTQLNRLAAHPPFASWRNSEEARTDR

Take `Cc1nc(Nc2ncc(C(=O)Nc3c(C)cccc3Cl)s2)cc(N2CCN(CCO)CC2)n1.O` [dasatinib, N-(2-chloro-6-methylphenyl)-2-[[6-[4-(2-hydroxyethyl)-1-piperazinyl]-2-methyl-4-pyrimidinyl]amino]-5-thiazole carboxamide monohydrate]: on BLK (241-494)-PL fusion [1] (BLK-PL vs MEK-PL fusions), the binding specificity entry is “specific for binding to the BLK fusion containing the ATP binding site”. The “signal (BLK-PL fusion) compared to cells incubated with U0126 and PD035901” value on BLK (241-494)-PL fusion [1] (U2OS cells, over a period of time) is “gain in signal”. Besides, on BLK (241-494)-PL fusion [2], the “affinity of BLK-PL fusion with dasatinib” value is reported as “highest affinity”.
Regarding `C[C@]12CC[C@H](O)CC1=CC[C@@H]1[C@@H]2CC[C@]2(C)C(c3cccnc3)=CC[C@@H]12` [Abiraterone], a half-maximal effect at CYP 17A-PL fusion (stabilization, gain of signal) (EC50) was put at 252 pM.
`CC1(C)CCC(c2ccc(Cl)cc2)=C(CN2CCN(c3ccc(C(=O)NS(=O)(=O)c4ccc(N[C@H](CCN5CCOCC5)CSc5ccccc5)c(S(=O)(=O)C(F)(F)F)c4)cc3)CC2)C1` [ABT-263]: at BCL-2 / PL-Bax, the HillSlope is on record as −1.216, the “Bottom (best-fit)” value stood at 5900, the “Top (best-fit)” value is given as 31800 and the “effect on BCL-2 stabilization of Bax” value is given as “somewhat similar effect”. Further, on BCL-2 / PL-Bim, the HillSlope is −1.635, the “Bottom (best-fit)” value is given as 6740, the “Top (best-fit)” value came out at 136900 and the “effect on BCL-2/Bim stabilization” value was “prevented the stabilizing effect”. The compound further returned a HillSlope on BCL-2 / PL-Bak (PL-Bak) of −0.4082. Further, at BCL-2 / PL-Bak (setting [4]), the “Bottom (best-fit)” value is given as −14342. Besides, the “effect on BCL-2 binding to and stabilization of Bak” value on BCL-2 / PL-Bak (overnight, U2OS) is recorded as “little effect”.
Take `N#Cc1ccc(N(Cc2ccc(Br)cc2)n2cnnc2)cc1` [YM511, 4-[[(4-Bromophenyl)methyl]-4H-1,2,4-triazol-4-ylamino]benzonitrile]: in [3], the “stabilization of CYP 19A fusion peptide” value is given as “stabilized”.
In turn, `CC(=O)N1CCN(c2ccc(OCC3COC(Cn4ccnc4)(c4ccc(Cl)cc4Cl)O3)cc2)CC1` (stereo not drawn) [Ketoconazole] gave a HillSlope at CYP 17A-PL fusion of 1083. Moreover, at CYP 17A-PL fusion (HEK cells, 3-6 hrs), the “stabilization of CYP 17 A domain fusion” value was “stabilization”. Besides, at CYP 17A-PL fusion (HEK cells, 3-6 hrs at 37° C.), the “Bottom (best-fit)” value is 1.230e+006 and the “Top (best-fit)” value came to 2.348e+006.
As to `CN(C)CC[C@H](CSc1ccccc1)Nc1ccc(S(=O)(=O)NC(=O)c2ccc(N3CCN(Cc4ccccc4-c4ccc(Cl)cc4)CC3)cc2)cc1[N+](=O)[O-]` [ABT-737], on BCL-2 / PL-Bax, the HillSlope is reported as −1.485, the “Bottom (best-fit)” value came to 6973, the “Top (best-fit)” value stood at 31292 and the “effect on BCL-2 stabilization of Bax” value was “somewhat similar effect”. Also, at BCL-2 / PL-Bim, the HillSlope is reported as −1.898, the “Bottom (best-fit)” value was 7774, the “Top (best-fit)” value is 139290 and the “effect on BCL-2/Bim stabilization” value is given as “prevented the stabilizing effect”. The compound also gave a HillSlope on BCL-2 / PL-Bak (PL-Bak) of −0.5348. Moreover, on BCL-2 / PL-Bak (setting [4]), the “Bottom (best-fit)” value was found to be 5446 and the “Top (best-fit)” value is 11602. The “effect on BCL-2 binding to and stabilization of Bak” value on BCL-2 / PL-Bak (overnight, U2OS) is “little effect”.
As to `Cc1sc2c(c1C)C(c1ccc(Cl)cc1)=N[C@@H](CC(=O)OC(C)(C)C)c1nnc(C)n1-2` [JQ1], the “stability of fusion protein following compound binding” value in the assay on BRD4 (1)-PL fusion is on record as “increase in stability”.
On to `CC(C)(C#N)c1cc(Cn2cncn2)cc(C(C)(C)C#N)c1` [anastrazole], for which the “stabilization of CYP 19A fusion peptide” value in [3] is given as “stabilized”.
Turning to `COc1cc2c(NC3CCN(C(C)C)CC3)nc(C3CCCCC3)nc2cc1OCCCN1CCCC1` [UNC0638], on G9A(918-1198)-PL (A549 cells, cycloheximide), the “half-life of fusion protein compared to fusion protein not exposed to the binding partner” value is “greater”. At G9A(918-1198)-PL (after 100 minutes of cycloheximide, A549 cells pretreated 6 hrs), the “percent change in luminescence” value is recorded as “minimal”.
